Results on one compound are retold here after paper PMC9879939, “Synergy of ruthenium metallo-intercalator, [Ru(dppz)2(PIP)]^2+, with PARP inhibitor Olaparib in non-small cell lung cancer cells” (Scientific Reports, 2023).

Several values for one entry are separate records, joined by “and”; a condition that tells them apart may be missing. Equal entries are not always repeated.

Data set [1] has as its system MRC5 normal human lung fibroblasts. As to the kind of experiment: MTT assay (cell viability). The note with it: max tested 100 μM, combinations: Ru-PIP gradient with fixed Olaparib. It is filed as cell-based. The protocol: (§1) Cells were seeded in 96-well plates at 5 × 10^3 cells/well and allowed to adhere overnight. […] For drug combination treatment, cells were treated with concentration gradient of Ru-PIP (3.125–100 µM) in combination with Olaparib (5 or 10 µM). After 24, 48 or 72 h incubation, 0.5 mg/ml thiazolyl blue tetrazolium bromide (MTT) dissolved in 1X PBS was added to each well and cells were incubated at 37 °C for 4 h. 100 µl of DMSO was added to each well to solubilize the reduced purple formazan crystals formed. Next, the absorbance at 570 nm (630 nm as reference wavelength) was measured using a microplate reader. The half maximal inhibitory concentration (IC50) for each compound was determined using GraphPad Prism software. Additionally, selectivity indices (SI) were determined by the ratio between IC50 of normal cells and that of cancer cells.

The subject of data set [2] is A549, H1975 and T24 cells. As to the kind of experiment: MTT assay, summary statements over the cancer cell lines. The format is cell-based, human. To be noted: 72 h treatments; A549, H1975 and T24 cells vs normal MRC5 cells. As for the experimental part: as §1
On the technique in general: Formazan colour is commonly taken as a measure of viable cells.

In data set [3] the test system is A549 cells. As to the kind of experiment: Wound healing assay. The format is cell-based, human. To be noted: Ru-PIP 25 µM, time point not stated (untreated 100% closed at 72 h). As for the experimental part:
Lung cancer cells were seeded at density of 5 × 10^5 cells/well in a 6-well plate and were incubated in the incubator until a confluent monolayer of cells formed. After serum-starved for 4 h, a straight scratch was made in each well with a sterile 200 µl pipette tip, solution was removed, and each well was washed with 1X PBS twice. Cells were treated with Ru-PIP (25 µM), Olaparib (5 µM) or both. Cells migration in the wound scratch area was photographed at 0, 24, 48 and 72 h timepoints. Images were photographed at 10 × magnification using a camera attached microscope and were analyzed using ImageJ software. The percentage of wound scratch closure was determined by measuring the reduction in the wound area at each time point by comparing to 0 h (100%).

The subject of data set [4] is zebrafish embryos. As to the kind of experiment: Acute toxicity test on zebrafish embryos (OECD Test No. 236). To be noted: zebrafish embryos. As for the experimental part: The newly fertilized eggs at less than 1 hpf (hours post fertilization) were collected, washed with deionized water and incubated at RT (28 ± 1 °C) in Danio-SprintM embryo media. […] Untreated control consisting of Danio-SprintM embryo media containing 0.1% DMSO. 24 embryos were used in total for each concentration per treatment of two independent experiments (n = 24). The zebrafish embryos development was observed and imaged using a light microscope attached to a digital camera at 24, 48, 72 and 96 hpf (hours post fertilization). Four lethal endpoints were evaluated including coagulated embryos, lack of somite formation, non-detachment of the tail and lack of heartbeat. All these characteristics were recorded every 24 hpf, except heartbeat, which is visible after 48 hpf. […] Hatching which is also considered as a sensitive endpoint toxicity parameter was also observed in which hatching normally occurs at 48 to 72 hpf.

Data set [5] concerns A549 spheroids. As to the kind of experiment: Spheroids growth inhibition studies. The note with it: Ru-PIP 25 µM. The format is cell-based, human. As for the experimental part:
Spheroids establishment was attempted for A549 lung cancer cells using hanging drop method. 20 µL of cell suspension containing 2000, 4000, 6000, 8000 and 10,000 cells were dropped onto the surface of petri dish lid and incubated at 37 °C, such that each drop will contain single spheroid. After three days of incubation, each spheroid formed was transferred onto agarose-coated (50 µL, 0.6%) 96-well plates containing 80 µL growth media and further incubated for 15 days at 37 °C, such that each well contained a single spheroid. Formation of spheroids was observed and imaged every three days using a light microscope with a 4 × objective lens connected to a digital camera. During growth, 50% of the media was replaced every three days. The growth in volume of each spheroid was determined according to a published method. At least six spheroids were grown per seeding density for each independent experiment.
Spheroids were grown as described initially. Initial cell seeding density was chosen such that each spheroid reached a diameter of approximately 400 μm after three days (4,000 cells/well for A549 cells). After spheroids formation, spheroids were incubated with Ru-PIP (25 µM), Olaparib (5 µM) or both for a period of 12 days. The structural integrity of spheroids upon treatment was observed and imaged for every three days using a light microscope with a 4 × objective lens connected to a digital camera, and the volume of each spheroid was measured according to a published method. Prior to imaging, 50% of treatment-containing medium was replaced (every three days). At least six spheroids were grown per treatment for each independent experiment.

Data set [6] has as its system T24 bladder cancer cells. As to the kind of experiment: MTT assay (cell viability; CI and SI derived from it). The note with it: for Selectivity Index (SI) = IC50 normal cells/IC50 cancer cells: MRC5 vs T24; for IC50: T24, max tested 100 μM, combinations: Ru-PIP gradient with fixed Olaparib. It is filed as cell-based, human. The protocol: as §1
(§2) Based on the data obtained from MTT assay, combination indices (CI) were determined using Calcusyn and CompuSyn software (Biosoft, Cambridge, UK). This is based on the established drugs combination method by Chou and Talalay[30],[31]. CI values indicate the type of drugs interaction in which CI < 0.9 indicates synergism, CI = 0.9–1.0 indicates additive and CI > 1.0 indicates antagonism. GraphPad Prism software was used to generate a three-color scale based on CI values obtained, where synergism is represented by green, additive by yellow, and antagonism by red in which the colors of each CI value were interpolated in between these constraints accordingly.

The test system of data set [7] is H1975 lung cancer cells. The description is as above. It is filed as cell-based, human. To be noted: for IC50: H1975, max tested 100 μM, combinations: Ru-PIP gradient with fixed Olaparib; for Selectivity Index (SI) = IC50 normal cells/IC50 cancer cells: MRC5 vs H1975. The protocol:
as §1, §2

Data set [8] concerns A549 cells. As to the kind of experiment: Cell cycle analysis (PI staining, flow cytometry). It is filed as cell-based, human. To be noted: Ru-PIP 25 µM, 24 h. The protocol:
Lung cancer cells were seeded in 6-well plate at density of 1 × 10^5 cells/well and allowed to adhere overnight. Cells were treated with Ru-PIP (25 µM), Olaparib (5 µM) or both. After 24 or 48 h incubations, cells were harvested, washed with 1X PBS twice, and fixed with ice-cold 70% ethanol at least overnight at − 20 °C. The fixed cells were collected by centrifugation at 1,000 rpm for 5 min and the resulting pellets were washed with 1X PBS twice. The samples were resuspended in 500 µl PBS and treated with 5 µl RNase A solution (10 mg/ml) for 15 min at RT. After incubation, the samples were stained with 2 µl of propidium iodide (PI) solution (5 mg/ml) at RT, in the dark. Samples were acquired, and cell cycle distribution was analyzed using NovoCyte flow cytometer and NovoExpress software. For each sample, a minimum of 10,000 cells were counted and analyzed.

Consider `[Ru+2].c1ccc(-c2nc3c4cccnc4c4ncccc4c3[nH]2)cc1.c1ccc2nc3c4cccnc4c4ncccc4c3nc2c1.c1ccc2nc3c4cccnc4c4ncccc4c3nc2c1` [Ru-PIP, [Ru(dppz)2(PIP)]^2+], for which the concentration for half-maximal inhibition (IC50) (as a rule, the concentration needed to halve the response being measured) in data set [1] (24 h) was over 100 µM; in data set [1] (48 h), 91 ± 7.9 µM; in data set [1] (72 h), over 100 µM; in data set [6] (24 h), 45.1 ± 6.2 µM; in data set [6] (48 h), 22.7 ± 2.8 µM; in data set [6] (72 h), 15.8 ± 2.9 µM. Also, the half-maximal inhibitory concentration (IC50) in data set [7] (24 h) was over 100 µM; in data set [7] (48 h), 95.1 ± 2.9 µM; in data set [7] (72 h), 59.4 ± 11.6 µM. Moreover, in data set [2], the “selectivity indices (SI)” value was over 1.6. Moreover, in data set [3], the wound closure came to 88%. In addition, the “embryos showing yolk sac edema” value in data set [4] (50 mg/L Ru-PIP alone, 96 hpf) amounted to 33%. In addition, in data set [4] (100 mg/L), the “embryos' hatching prevented” value is listed as about 100%. Moreover, the “96 h LC50” value in data set [4] (96 h treatment) was 57.5 µg/mL and 55.5 µg/mL. Besides, the “survival and morphological changes of embryos” value in data set [4] (< 25 mg/L) is reported as “the embryos survive without any morphological defects”. In data set [5] (12 days), the spheroid growth result is “prevented spheroid growth”. Besides, the “structural integrity of pre-formed spheroids” value in data set [5] (Olaparib 5 µM or both, 12 days after treatment initiation) was “remained structurally intact”. The “Selectivity Index (SI) = IC50 normal cells/IC50 cancer cells” value in data set [6] (24 h) was over 2.2; in data set [6] (48 h), 4.0; in data set [6] (72 h) it was over 6.3; in data set [7] (48 h), 0.9; in data set [7] (72 h), over 1.6. Further, the “increase in G1 phase compared to control” value in data set [8] is reported as 16.1%.
